The target in the first assay is T1, MC-4 receptor (Homo sapiens, UniProt P32245).
T1 construct: expressed in transfected cells; host or cells: HEK cells (stably transfected)
T1 sequence (P32245 whole entry): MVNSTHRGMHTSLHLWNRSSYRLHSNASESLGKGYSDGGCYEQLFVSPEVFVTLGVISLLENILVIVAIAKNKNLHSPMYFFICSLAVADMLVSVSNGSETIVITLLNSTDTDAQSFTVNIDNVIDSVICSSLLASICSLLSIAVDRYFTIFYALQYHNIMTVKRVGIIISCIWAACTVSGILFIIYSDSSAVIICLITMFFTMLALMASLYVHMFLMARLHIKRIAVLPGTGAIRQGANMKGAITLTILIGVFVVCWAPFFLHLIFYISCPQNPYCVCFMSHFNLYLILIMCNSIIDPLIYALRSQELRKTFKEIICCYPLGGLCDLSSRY
As to the kind of experiment: BioTrak cAMP direct enzymeimmunoassay in HEK cells stably transfected with MC-1, MC-3 or MC-4 receptors (% cAMP relative to NDP-MSH). It counts as cell-based. To be noted: % of maximal cAMP produced by NDP-MSH; concentrations 1×10^−8 to 1×10^−4 molar; HEK cells transfected with MC-1, MC-3 or MC-4. The procedure: The NDP-MSH standard was evaluated for the level of c-AMP release at each receptor and the values for the test samples were expressed as a % of the maximal amount produced by NDP-MSH. 1R, 3R, and 4R correspond respectively to the MC-1, MC-3, and MC-4 receptors. The % c-AMP produced by each compound was measured at concentrations from 1×10^−8 to 1×10^−4 molar.
As used herein, “MC-4 agonist” and “MC-3 agonist” refers to a compound with affinity for the MC-4 receptor or MC-3 receptor, respectively, that results in measurable biological activity in cells, tissues, or organisms which contain the MC-4 or MC-3 receptor. […] One particularly useful assay is the BioTrak TM cAMP direct enzymeimmunoassay (EIA) system from Amersham Pharmacia Biotech, which quantitates the cAMP response of cells to MC ligands. This system allows the simple quantitation of total cellular cAMP measurement in cells exposed to selective ligands. Briefly summarized: HEK cells stably transfected with the MC-1, MC-3 or MC-4 receptors are plated into 96 well microtiter plates and grown overnight. Cells are dosed with the appropriate MC ligand for 1 hour and then lysed. A fraction of the lysed cell extract is transferred to the assay plate. The ELISA assay is performed according to kit instructions. Each plate contains a series of cAMP standards for calculating a standard curve, as well as a full MC agonist as a positive control for each MC receptor. cAMP activity is calculated as a % of the maximum cAMP activity of the full MC agonist control.
A compound's selectivity is determined from a comparison of its EC50 values at the relevant receptors being referenced. As used herein, use of the term “selective over the other MC receptors” means selective with respect to all of the MC-1, MC-2 and MC-5 receptors. For example, a compound having an EC50 of 8 nM at the MC-4 receptor and an EC50 of ≧80 nM at the MC-1, MC-2 and MC-5 receptors has a selectivity ratio for the MC-4 receptor over the other MC receptors of at least 1:10. Additionally, it will be recognized that selectivity may also refer to one of the MC-1, MC-2 or MC-5 receptors individually. For example, a compound having an EC50 of 8 nM at the MC-4 receptor and an EC50 of 80 nM at the MC-1 receptor has a selectivity ratio for the MC-4 receptor over the MC-1 receptor of 1:10. Such a compound is selective over the MC-1 receptor, regardless of its EC50 value for MC-2 or MC-5. Selectivity is described in more detail below and may be determined by using, for example, the software Prism v 2.0 which is available from GraphPad, Inc.
Consider Ac-NIeDHfRWGK-NH2 [reference compound], for which the “selectivity shown by % cAMP activity at various concentrations at MC-1R, MC-3R and MC-4R” value (from here on “selectivity shown by % cAMP activity”) is reported as “non-selective agonist”.

As to “Ac-SYSNIeEHfRWGKPV-NH2 [reference compound]”, the “selectivity shown by % cAMP activity” value is listed as “non-selective agonist”.

On to Ac-[DYfRWGK]-NH2 [Example 2], for which the “selectivity shown by % cAMP activity” value is “selectivity of this analog for MC-4R over the MC-3R and MC-1R”.

Ac-aDYfRWG(Orn)-NH2 [Example 17]: the “selectivity shown by % cAMP activity” value is given as “selectivity of this analog for MC-4R over MC-1R”.

For Ac-aDYfRWGK-NH2 [Example 16], the “selectivity shown by % cAMP activity” value is “selectivity of this analog for MC-4R over the MC-3R and MC-1R”.

Ac-aDYfRWK-NH2 [Example 14]: the “selectivity shown by % cAMP activity” value is given as “selectivity of this analog for MC-4R over MC-1R”.

Turning to Ac-aEYfRWG(Orn)-NH2, the “selectivity shown by % cAMP activity” value is “selectivity of this analog for MC-4R over MC-1R”.

As for Ac-a[DYfRWG(Orn)]-NH2 [Example 31], the “selectivity shown by % cAMP activity” value is recorded as “selectivity of this analog for MC-4R over MC-1R”.

Ac-a[EYfRWG(Orn)]-NH2 [Example 4]: the “selectivity shown by % cAMP activity” value was “selectivity of this analog for MC-4R over the MC-3R and MC-1R”.

As for Ac-a[EYfRWGK]-NH2 [Example 5], the “selectivity shown by % cAMP activity” value was “selectivity of this analog for MC-4R over the MC-3R and MC-1R”.

System in the next assay: not listed separately
As to the kind of experiment: Example A: treatment of an obese human subject to incur weight loss. Type of assay: in vivo. To be noted: obese human 130 kg; intravenous injection once each day for 6 months, 15 ml aqueous solution with 5 mg/ml compound. Here is the method: An obese human subject weighing 130 kg is treated by this method to incur weight loss. Specifically, once each day for a period of 6 months, the subject is administered, via intravenous injection, 15 ml of an aqueous solution comprising the following: […]
Take Ac-a[DYfRWGK]-NH2 [Example 1]: the “weight loss at the end of the treatment period” value is listed as “measurable weight loss”.

Source of the values: patent US6951916B2, “Melanocortin receptor ligands” (The Procter & Gamble Company, priority 1999, dated 2005).
